From ChEMBL document CHEMBL4819130 (Bioorg Med Chem, 2021)
Active and inactive are the calls of the source. The rule behind the calls is not given here.

Tests used:
Cocaine esterase = target: T1, Cocaine esterase (Homo sapiens, UniProt O00748); experiment: Inhibition of CES2 in human liver microsomes assessed as reduction in substrate hydrolysis using fluorescein diacetate as substrate preincubated for 3 mins followed by substrate addition and measured after 20 mins by fluorescence analysis
T1 sequence (O00748 whole entry): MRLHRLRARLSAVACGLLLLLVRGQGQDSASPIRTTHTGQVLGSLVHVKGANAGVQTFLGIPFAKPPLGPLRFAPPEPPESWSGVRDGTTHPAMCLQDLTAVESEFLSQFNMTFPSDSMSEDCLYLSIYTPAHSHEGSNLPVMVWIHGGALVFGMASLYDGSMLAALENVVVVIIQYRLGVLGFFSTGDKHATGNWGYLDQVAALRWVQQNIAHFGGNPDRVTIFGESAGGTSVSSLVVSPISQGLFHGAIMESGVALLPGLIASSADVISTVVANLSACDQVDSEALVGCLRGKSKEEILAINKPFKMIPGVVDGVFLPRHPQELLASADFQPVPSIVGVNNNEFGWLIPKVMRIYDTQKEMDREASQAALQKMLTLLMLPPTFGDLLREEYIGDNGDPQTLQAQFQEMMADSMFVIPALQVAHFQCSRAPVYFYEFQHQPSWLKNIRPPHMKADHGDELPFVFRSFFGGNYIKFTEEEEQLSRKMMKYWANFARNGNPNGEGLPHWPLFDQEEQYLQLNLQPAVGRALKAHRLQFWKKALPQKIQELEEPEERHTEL

3T3-L1 [1] = experiment: Cytotoxicity against mouse 3T3-L1 cells assessed as reduction in cell viability at <40 uM after 48 hrs by CCK8 assay; assay type: cell-based; settings: 3t3-l1, 48 h
Caco-2 = experiment: Cytotoxicity against human Caco-2 cells assessed as reduction in cell viability at <40 uM after 48 hrs by CCK8 assay; assay type: cell-based; settings: caco-2, 48 h
HepG2 = experiment: Cytotoxicity against human HepG2 cells assessed as reduction in cell viability at <40 uM after 48 hrs by CCK8 assay; assay type: cell-based; settings: hepg2, 48 h
3T3-L1 [2] = experiment: Inhibition of adipogenesis in mouse 3T3-L1 cells assessed as reduction in lipid droplet formation at 40 uM incubated with compound for 72 hrs in presence of adipogenesis-inducing agent followed by culturing in normal medium in presence of compound for 48 hrs by Oil red O staining based analysis; assay type: functional, cell-based; settings: time 120.0 hrs
3T3-L1 [3] = experiment: Inhibition of adipogenesis in mouse 3T3-L1 cells assessed as reduction in lipid droplet formation at 10 uM incubated with compound for 72 hrs in presence of adipogenesis-inducing agent followed by culturing in normal medium in presence of compound for 48 hrs by Oil red O staining based analysis; assay type: functional, cell-based; settings: time 120.0 hrs

IC50 (Cocaine esterase) [µM]	SMILES	further results
3.82	Cc1ccc(C2=NN(c3ccccc3)C(=O)C2Cc2ccccc2)cc1 (stereo unspecified)	
	Cc1ccc(CC2C(=O)N(C3CCCCC3)N=C2c2ccc(C)cc2)cc1 (stereo unspecified)	Activity (3T3-L1 [1]): Non-Toxic; Activity (Caco-2): Non-Toxic; Activity (HepG2): Non-Toxic; inhibition (3T3-L1 [2]): Active; inhibition (3T3-L1 [3]): Active
7.76	C=CCC1C(=O)N(c2ccccc2)N=C1c1ccccc1 (stereo unspecified)	
9.04	CCC1C(=O)N(c2ccccc2)N=C1c1ccccc1 (stereo unspecified)	
9.12	O=C1C(Cc2ccccc2)C(c2ccccc2)=NN1C1CCCCC1 (stereo unspecified)	
6.19	O=C1C(Cc2ccccc2)C(c2ccc(Br)cc2)=NN1c1ccccc1 (stereo unspecified)	
7.11	Cc1cccc(CC2C(=O)N(c3ccccc3)N=C2c2ccccc2)c1 (stereo unspecified)	
6.68	COc1ccc(CC2C(=O)N(c3ccccc3)N=C2c2ccccc2)cc1 (stereo unspecified)	
8.24	O=C1C(Cc2ccc(Br)cc2)C(c2ccccc2)=NN1c1ccccc1 (stereo unspecified)	
10.9	O=C1C(Cc2ccccc2[N+](=O)[O-])C(c2ccccc2)=NN1c1ccccc1 (stereo unspecified)	
1.57	CCCCCCCC/C=C\CCCCCCCC(=O)OCC(O)COP(=O)(O)O (stereo unspecified)	
5.16	Cc1ccc(CC2C(=O)N(c3ccccc3)N=C2c2ccccc2)cc1 (stereo unspecified)	
